PubChem BioAssay AID2060883 (Molecular Pharmacology Branch, DTP, NCI, 2025)
pIC50: −log10 of the molar value.

System: 843782-103-R-J1-PDC complex spheroid viability
Assay: Anticancer human tumor 843782-103-R-J1-PDC patient-derived lung adenocarcinoma cell line growth inhibition [RAS]
Conditions: for pIC50: curve of first compound; for viability, T/C: stronger effect = lower value
Description: RAS pathway inhibitors in Combinations in Complex Spheroids
A high-throughput screen of multi-cell type tumor spheroids was designed to identify active combinations of RAS pathway inhibitors and targeted small molecules. Complex spheroids include a stromal component modeled by human endothelial cells (HUVEC) and fibroblasts modeled by human mesenchymal stem cells (MSCs). The concentration ranges selected for each drug and investigational agent were based upon clinically achievable concentrations if the clinical Cmax of the agent was known.
Compounds. The drugs and investigational agents: abemaciclib (NSC768073), cobimetinib (NSC768068), divarasib (GDC6063, NSC841802), docetaxel (NSC628503), GDC-1971 (RLY-1971, NSC841576), gemcitabine (NSC613327), inavolisib (NSC800729), ipatasertib (NSC767898), KB-0742 (NSC834161), MRTX-1133 (NSC836407), osimertinib (NSC779217), RMC-4630 (NSC839698), RMC-6236 (NSC851965), RMC-6291 (NSC852671), Ro-3306 (NSC812927), sapanisertib (NSC764658), SN-38 (NSC673596), staurosporine (NSC755774), SY5609 (NSC837396), and tovorafenib (DAY101, NSC766906), were obtained from the National Cancer Institute (NCI) Developmental Therapeutics Program Chemical Repository. The FDA-approved anticancer drug set is available from the NCI Developmental Therapeutics Program. […] The stock solutions were prepared in dimethyl sulfoxide (DMSO, Sigma-Aldrich, St. Louis, MO, cat. D2650) at 800-fold the tested concentration and stored at -70 degrees C prior to their use. All drugs and investigational agents were tested over a range starting from a high concentration at or near the clinical Cmax and decreasing in half-log increments. If the clinical Cmax for an agent had not been determined, the highest concentration tested was 10 microM.
Cell Culture. All cells were maintained in an incubator at 37 degrees C and 5% CO2 with 95% humidity. The PDC lines were cultured according to standard operating procedures established by the NCI PDMR. All PDCs were thawed and cultured in Matrigel-coated flasks prepared with a working solution of 1X Ham's F-12 nutrient mix, without supplementation (Invitrogen, Waltham, MA, cat. 11765054), 100 U/mL penicillin-streptomycin (Invitrogen, cat. 15140122), and 2.5% Matrigel (Corning Inc., Corning, NY, cat. 354248) for the first three passages. The 362531-283-R-J2-PDC and 782815-120-R-J1-PDC lines were cultured in 6C/Colon 1B media, which includes advanced DMEM/F-12 (Thermo Fisher Scientific, cat. 12634028), 10 mM HEPES (Thermo Fisher Scientific, cat. 15630080), 1X GlutaMAX supplement (Thermo Fisher Scientific, cat. 35050061), 0.1 mg/mL primocin (InvivoGen, San Diego, CA, cat. ant-pm-2), 10% defined fetal bovine serum, heat inactivated (HyClone Laboratories Inc., Logan, UT, cat. SH30070.03HI), 50% L-WRN conditioned media (ATCC, cat. CRL-3276), 1.25 mM N-Acetyl-L-cysteine (Sigma-Aldrich, cat. A9165), 10 mM nicotinamide (Sigma-Aldrich, cat. N0636), 1X B-27 supplement (Thermo Fisher Scientific, cat. 17504044), 1X N-2 supplement (Thermo Fisher Scientific, cat. 17502048), 50 ng/mL human EGF (Thermo Fisher Scientific, cat. PHG0311), and 10 microM Y-27632 dihydrochloride (Tocris Bioscience, cat. 1254). The K12877-001-R-J1-PDC line was cultured in 6I media, which includes all 6C/Colon 1B media plus 10 ng/mL human FGF-10 (PeproTech, cat. 100-26), 1 ng/mL human FGF-2 (PeproTech, cat. 100-18B), 1 µM prostaglandin E2 (Tocris Bioscience, cat. 2296), […] hydrocortisone (Sigma-Aldrich, cat. H4001), and […] bovine insulin (Sigma-Aldrich, cat. I6634). The K86415-001-R-J1-PDC line was cultured in 6D media, which includes all 6C/Colon 1B media components minus the L-WRN conditioned media. The 485176-168-R4-J1-PDC was cultured in PANC media, which includes all 6C/Colon 1B media plus 100 ng/mL human FGF-10 (PeproTech, cat. 100-26), 500 nM SB-431542 (Selleckchem, cat. S1067), and 10 nM gastrin (Tocris Bioscience, cat. 3006). […]

[1] = second compound 0.0316 µM, first compound 0.0316 µM
[2] = second compound 0.0316 µM, first compound 0.1 µM
[3] = second compound 0.0316 µM, first compound 0.316 µM
[4] = second compound 0.0316 µM, first compound 1 µM
[5] = second compound 0.1 µM, first compound 0.0316 µM
[6] = second compound 0.1 µM, first compound 0.1 µM
[7] = second compound 0.1 µM, first compound 0.316 µM
[8] = second compound 0.1 µM, first compound 1 µM
[9] = second compound 0.316 µM, first compound 0.0316 µM
[10] = second compound 0.316 µM, first compound 0.1 µM
[11] = second compound 0.316 µM, first compound 0.316 µM
[12] = second compound 0.316 µM, first compound 1 µM
[13] = second compound 1 µM, first compound 0.0316 µM
[14] = second compound 1 µM, first compound 0.1 µM
[15] = second compound 1 µM, first compound 0.316 µM
[16] = second compound 1 µM, first compound 1 µM
[17] = second compound 3.16 µM, first compound 0.0316 µM
[18] = second compound 3.16 µM, first compound 0.1 µM
[19] = second compound 3.16 µM, first compound 0.316 µM
[20] = second compound 3.16 µM, first compound 1 µM
[21] = second compound 10 µM, first compound 0.0316 µM
[22] = second compound 10 µM, first compound 0.1 µM
[23] = second compound 10 µM, first compound 0.316 µM
[24] = second compound 10 µM, first compound 1 µM
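Also: viability read after seven days of compound exposure.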

CCC(CC)c1cc(NC2CCC(N)C2)n2nccc2n1 (centres undefined) + C#Cc1c(F)ccc2cc(O)cc(-c3ncc4c(N5CC6CCC(C5)N6)nc(OCC56CCCN5CC(F)C6)nc4c3F)c12
pIC50 (second compound 0.0316 µM): 5.73 | pIC50 (second compound 0.1 µM): 5.72 | pIC50 (second compound 0.316 µM): 5.74 | pIC50 (second compound 1 µM): 5.76 | pIC50 (second compound 3.16 µM): 5.90 | pIC50 (second compound 10 µM): 6.19 | viability, T/C [1]: 107% | viability, T/C [2]: 102% | viability, T/C [3]: 100% | viability, T/C [4]: 108% | viability, T/C (second compound 0.0316 µM, first compound 3.16 µM): 2.66% | viability, T/C (second compound 0.0316 µM, first compound 10 µM): 0.77% | viability, T/C [5]: 112% | viability, T/C [6]: 105% | viability, T/C [7]: 114% | viability, T/C [8]: 111% | viability, T/C (second compound 0.1 µM, first compound 3.16 µM): 2.16% | viability, T/C (second compound 0.1 µM, first compound 10 µM): 0.62% | viability, T/C [9]: 113% | viability, T/C [10]: 109% | viability, T/C [11]: 99.4% | viability, T/C [12]: 102% | viability, T/C (second compound 0.316 µM, first compound 3.16 µM): 2.35% | viability, T/C (second compound 0.316 µM, first compound 10 µM): 0.68% | viability, T/C [13]: 89.2% | viability, T/C [14]: 98% | viability, T/C [15]: 96.7% | viability, T/C [16]: 95.2% | viability, T/C (second compound 1 µM, first compound 3.16 µM): 1.42% | viability, T/C (second compound 1 µM, first compound 10 µM): 0.57% | viability, T/C [17]: 86.4% | viability, T/C [18]: 83.9% | viability, T/C [19]: 91.3% | viability, T/C [20]: 62.4% | viability, T/C (second compound 3.16 µM, first compound 3.16 µM): 2.2% | viability, T/C (second compound 3.16 µM, first compound 10 µM): 0.56% | viability, T/C [21]: 67.2% | viability, T/C [22]: 59.9% | viability, T/C [23]: 64.2% | viability, T/C [24]: 41.5% | viability, T/C (second compound 10 µM, first compound 3.16 µM): 0.51% | viability, T/C (second compound 10 µM, first compound 10 µM): 0.22%

CCN1CCN(Cc2ccc(Nc3ncc(F)c(-c4cc(F)c5nc(C)n(C(C)C)c5c4)n3)nc2)CC1 + C#Cc1c(F)ccc2cc(O)cc(-c3ncc4c(N5CC6CCC(C5)N6)nc(OCC56CCCN5CC(F)C6)nc4c3F)c12
pIC50 (second compound 0.0316 µM): < 6.00 | pIC50 (second compound 0.1 µM): < 6.00 | pIC50 (second compound 0.316 µM): < 6.00 | pIC50 (second compound 1 µM): 6.04 | pIC50 (second compound 3.16 µM): 6.38 | pIC50 (second compound 10 µM): 7.12 | viability, T/C (second compound 0.0316 µM, first compound 0.00316 µM): 108% | viability, T/C (second compound 0.0316 µM, first compound 0.01 µM): 93% | viability, T/C [1]: 101% | viability, T/C [2]: 105% | viability, T/C [3]: 101% | viability, T/C [4]: 71% | viability, T/C (second compound 0.1 µM, first compound 0.00316 µM): 107% | viability, T/C (second compound 0.1 µM, first compound 0.01 µM): 104% | viability, T/C [5]: 93.3% | viability, T/C [6]: 97.3% | viability, T/C [7]: 97.1% | viability, T/C [8]: 75% | viability, T/C (second compound 0.316 µM, first compound 0.00316 µM): 107% | viability, T/C (second compound 0.316 µM, first compound 0.01 µM): 101% | viability, T/C [9]: 103% | viability, T/C [10]: 99.3% | viability, T/C [11]: 86.7% | viability, T/C [12]: 65% | viability, T/C (second compound 1 µM, first compound 0.00316 µM): 105% | viability, T/C (second compound 1 µM, first compound 0.01 µM): 92.6% | viability, T/C [13]: 93.9% | viability, T/C [14]: 89.5% | viability, T/C [15]: 75.9% | viability, T/C [16]: 46.9% | viability, T/C (second compound 3.16 µM, first compound 0.00316 µM): 87.2% | viability, T/C (second compound 3.16 µM, first compound 0.01 µM): 88.6% | viability, T/C [17]: 79.5% | viability, T/C [18]: 69.4% | viability, T/C [19]: 53.1% | viability, T/C [20]: 40% | viability, T/C (second compound 10 µM, first compound 0.00316 µM): 67% | viability, T/C (second compound 10 µM, first compound 0.01 µM): 60.9% | viability, T/C [21]: 57.6% | viability, T/C [22]: 46.2% | viability, T/C [23]: 40.6% | viability, T/C [24]: 26.6%
